Results on three compounds are retold here after patent US6106856A (The Board of Governors for Higher Education, State of Rhode …, priority 1995, dated 2000).

The conditions of data set [1]: cited from earlier work.
Data set [2] can be described thus: Permeation through heat-separated human epidermis (Franz-diffusion cell). Format: in vitro ADME. On the procedure:
(§1) […] of this solution was given on heat-separated human epidermis (breast, area 4.5 cm^2) which was mounted on a Franz-diffusion cell. The cell was filled with 23 ml of a mixture of 60 parts of a 0.9% NaCl-solution and 40 parts of polyethylene glycol 400 (v/v).

Data set [3] in a line: Recrystallization of applied saturated drug solution during the permeation experiment. Format: physicochemical. The conditions noted are these: applied crystal-free. On the procedure:
as §1

Take `O=[N+]([O-])OCC(CO[N+](=O)[O-])O[N+](=O)[O-]` [nitroglycerin]: in data set [1] (transdermal nitroglycerin), the “tolerance observed in patients” value is listed as “tolerance observed in patients”.

`COC(=O)C1=C(C)NC(C)=C(C(=O)OC)C1c1ccccc1[N+](=O)[O-]` [Nifedipine]: in data set [1] (clinical studies), the “correlation of hypotensive and untoward side effects with plasma concentration” value is reported as “correlated with the plasma nifedipine concentration”. Further, the “variation of transient, high plasma levels” value in data set [1] (oral administration of conventional capsules) is on record as “may vary by tenfold”. Further, the “interindividual variability of plasma levels” value in data set [1] (oral administration) was “Extraordinary interindividual variability”. For the same compound, in data set [1] (rapid increase of plasma nifedipine concentration), the “heart rate and blood pressure effect on rapid increase of plasma concentration” value is “marked increase in heart rate and little effect on blood pressure”. Moreover, the Flux in data set [2] (8 h column) was found to be 0.35 μg/cm *h; in data set [2] (24 h column) it was 7.44 μg/cm *h; in data set [2] (32 h column), 6.13 μg/cm *h; in data set [2] (48 h column), 12.29 μg/cm *h.

Consider `COCCOC(=O)C1=C(C)NC(C)=C(C(=O)OC(C)C)C1c1cccc([N+](=O)[O-])c1` (stereo not shown) [Nimodipine], for which, in data set [3], the “recrystallization during the experiment” value is listed as “recrystallization”.
